B1: RV-183P (peptide)
peptide: YTIWMPENPRLGTSCDIFTNSRGKRASKG
B2: RV-183L (peptide)
peptide: YTIWMPENLRLGTSCDIFTNSRGKRASKG

Legend:
α4β2 nAChR = α4β2 nAChR (Homo sapiens, UniProt P17787+P43681); assay: cell-based
[1] = system: locomotor activity of mice; conditions: mouse, in vivo
[2] = system: nAChR-mediated pharyngeal pumping in C. elegans (nAChR EAT-2); parameters: species or system Caenorhabditis elegans; conditions: in vivo
[3] = target: T1, acetylcholine binding protein derived from Lymnaea stagnalis (L-AChBP) (Lymnaea stagnalis, UniProt P58154 20-229); assay: SPR; conditions: both partners purified
T1 construct: also called Synthetic Lymnaea stagnalis AChBP
T1 sequence (P58154 20-229): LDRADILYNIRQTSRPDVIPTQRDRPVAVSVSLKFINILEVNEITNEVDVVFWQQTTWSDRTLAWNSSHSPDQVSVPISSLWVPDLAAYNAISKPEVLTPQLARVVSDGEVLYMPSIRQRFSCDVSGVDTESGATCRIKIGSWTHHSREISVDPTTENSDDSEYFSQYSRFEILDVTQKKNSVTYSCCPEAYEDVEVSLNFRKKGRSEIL

Chain of α4β2 nAChR (P43681 29-627 limits assumed): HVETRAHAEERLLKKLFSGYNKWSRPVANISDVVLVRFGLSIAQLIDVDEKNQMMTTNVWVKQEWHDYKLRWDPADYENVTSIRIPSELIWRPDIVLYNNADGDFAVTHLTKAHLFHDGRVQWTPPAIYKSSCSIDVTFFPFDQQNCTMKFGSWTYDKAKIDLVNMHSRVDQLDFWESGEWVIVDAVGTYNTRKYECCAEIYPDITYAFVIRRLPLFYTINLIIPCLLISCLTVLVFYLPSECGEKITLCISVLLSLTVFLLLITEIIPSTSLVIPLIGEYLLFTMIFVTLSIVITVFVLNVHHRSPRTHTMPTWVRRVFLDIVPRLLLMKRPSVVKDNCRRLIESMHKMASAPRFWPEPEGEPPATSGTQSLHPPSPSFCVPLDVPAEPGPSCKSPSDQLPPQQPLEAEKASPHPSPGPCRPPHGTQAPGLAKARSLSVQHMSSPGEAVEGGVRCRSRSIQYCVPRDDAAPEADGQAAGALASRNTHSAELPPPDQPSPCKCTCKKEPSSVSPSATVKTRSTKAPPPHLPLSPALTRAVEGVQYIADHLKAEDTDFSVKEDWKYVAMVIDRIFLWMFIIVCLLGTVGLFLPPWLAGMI
Chain of α4β2 nAChR (P17787 26-502 limits assumed): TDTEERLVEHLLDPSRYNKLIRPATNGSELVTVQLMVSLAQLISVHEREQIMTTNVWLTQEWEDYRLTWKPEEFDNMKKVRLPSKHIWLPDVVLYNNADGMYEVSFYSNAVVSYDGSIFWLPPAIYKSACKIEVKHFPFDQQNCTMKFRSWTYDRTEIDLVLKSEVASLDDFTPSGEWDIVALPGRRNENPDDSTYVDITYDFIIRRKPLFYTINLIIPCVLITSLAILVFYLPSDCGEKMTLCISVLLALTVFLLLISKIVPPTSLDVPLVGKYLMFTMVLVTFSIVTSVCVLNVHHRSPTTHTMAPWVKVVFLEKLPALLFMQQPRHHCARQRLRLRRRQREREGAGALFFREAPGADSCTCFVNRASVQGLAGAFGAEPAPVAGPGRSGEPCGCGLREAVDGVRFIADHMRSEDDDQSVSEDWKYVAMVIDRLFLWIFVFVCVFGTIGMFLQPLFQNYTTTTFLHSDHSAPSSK

Molecule	IC50 (α4β2 nAChR) [µM]	locomotor activity in novel-environment behaviour test (in words) [1]	average pharyngeal pumping frequency (in words) [2]	worms in which pharyngeal pumping was absent [2]	binding result [3]
CC[C@H](C)[C@H](NC(=O)[C@H](CC(=O)O)NC(=O)[C@H](CS)NC(=O)[C@H](CO)NC(=O)[C@@H](NC(=O)CNC(=O)[C@H](CC(C)C)NC(=O)[C@H](CCCNC(=N)N)NC(=O)[C@H](C)NC(=O)[C@H](CC(N)=O)NC(=O)[C@H](CCC(=O)O)NC(=O)[C@@H]1CCCN1C(=O)[C@H](CCSC)NC(=O)[C@H](Cc1c[nH]c2ccccc12)NC(=O)[C@@H](NC(=O)[C@@H](NC(=O)[C@@H](N)Cc1ccc(O)cc1)[C@@H](C)O)[C@@H](C)CC)[C@@H](C)O)C(=O)N[C@@H](Cc1ccccc1)C(=O)N[C@H](C(=O)N[C@@H](CC(N)=O)C(=O)N[C@@H](CO)C(=O)N[C@@H](CCCNC(=N)N)C(=O)NCC(=O)N[C@@H](CCCCN)C(=O)N[C@@H](CCCNC(=N)N)C(=O)N[C@@H](C)C(=O)N[C@@H](CO)C(=O)N[C@@H](CCCCN)C(=O)NCC(=O)O)[C@@H](C)O [RV-183A]	465 to 2620	increased locomotor activity	significantly reduced	six out of seven	
CC[C@H](C)[C@H](NC(=O)[C@H](CC(=O)O)NC(=O)[C@H](CS)NC(=O)[C@H](CO)NC(=O)[C@@H](NC(=O)CNC(=O)[C@H](CC(C)C)NC(=O)[C@H](CCCNC(=N)N)NC(=O)[C@@H]1CCCN1C(=O)[C@H](CC(N)=O)NC(=O)[C@H](CCC(=O)O)NC(=O)[C@@H]1CCCN1C(=O)[C@H](CCSC)NC(=O)[C@H](Cc1c[nH]c2ccccc12)NC(=O)[C@@H](NC(=O)[C@@H](NC(=O)[C@@H](N)Cc1ccc(O)cc1)[C@@H](C)O)[C@@H](C)CC)[C@@H](C)O)C(=O)N[C@@H](Cc1ccccc1)C(=O)N[C@H](C(=O)N[C@@H](CC(N)=O)C(=O)N[C@@H](CO)C(=O)N[C@@H](CCCNC(=N)N)C(=O)NCC(=O)N[C@@H](CCCCN)C(=O)N[C@@H](CCCNC(=N)N)C(=O)N[C@@H](C)C(=O)N[C@@H](CO)C(=O)N[C@@H](CCCCN)C(=O)NCC(=O)O)[C@@H](C)O [RV-183P]	185 to 314	increased locomotor activity			
GSEPKWYRTKDRASPGSNFTITLMGRCNI [Scrambled, reference compound]		No difference			
B1					binds
B2					binds

Source: publication PMC5634495 (Scientific Reports, 2017)
